Consider five compounds from patent US12439921B2 (priority 2019, dated 2025).

Molecules are shown by their SMILES.

Common to all, as to assay type: in vivo
One data set has as its system Heterodera glycines. Briefly: Heterodera glycines control test (in vitro). The settings on record: 10 ppm; second stage larvae; 2 days after addition; 25° C. As for the experimental part:
Each well of a 24-well plate was charged with 1 mL of a chemical solution prepared to have a final concentration of 0.1% acetone and a predetermined concentration of the compound (1), in which 20 to 30 larvae of Heterodera glycines at the second stage were released and left to stand in the dark at 25° C. The number of surviving and moribund worms 2 days after the addition of the chemical solution was measured. In addition, the number of surviving and moribund worms in the untreated group not treating the compound (1) was measured in the same manner, and the corrected mortal worm rate was calculated by the following formula.
Corrected mortal worm rate (%)={(mortal worm rate of treated group−mortal worm rate of untreated group)/(100−mortal worm rate of untreated group)}×100

The next data set has as its system Cucumber seeds. Briefly: Cucumber phytotoxicity test (seed dressing). The following applies: 0.5 mg/seed, 10 days after sowing; for Germination Count: sowing count 5. The method, then: Cucumber seeds were sown one by one in a 3 cm styrene cup filled with sterilized soil, where the seeds had been subjected to dressing treatment with a dressing dust presented in Formulation Example 1 or Formulation Example 2 so that the amount treated of the compound (1) or compound (2) would be a predetermined amount.
The germination rate was calculated 10 days after sowing. In addition, the germination rate was also calculated in the same manner for the case of sowing seeds treated with fluensulfone instead of Formulation Example 1 (compound (1)) or Formulation Example 2 (compound (2)) and for the case of sowing seeds treated with none of the compounds.

The subject of a further data set is Ascaridia galli. Kind of data set: Ascaridia galli control test (in vitro). The settings on record: 50 ppm; 24 hours; 42° C. As for the experimental part:
To 10 mL of a chemical solution prepared by using Ringer's solution so that the compound (1) or the compound (2) would have a predetermined concentration, 6 Ascaridia galli were introduced, and the solution was cultured in a water bath at 42° C. The number of surviving worms was counted 24 hours after the start of culture, and the mortal worm rate was calculated.

The subject of data set [1] is Meloidogyne incognita. Kind of data set: Meloidogyne incognita control test (soil irrigation). The following applies: cucumber; soil irrigation 100 ppm, 3 mL; 21 days after inoculation. As for the experimental part: Cucumber seeds were sown one by one in a 3 cm styrene cup filled with sterilized soil. After germination, 3 mL each of a chemical solution prepared with 10% acetone water was irrigated into the soil so that the compound (1) would be 100 ppm when irrigated into the soil. After 1 hour, 200 counts/mL of the second stage larval solution of Meloidogyne incognita were inoculated at 1 mL/pot. Then, 21 days after the inoculation, the degree of gall formation on the cucumber root was classified by a visual inspection based on the following 6-level gall formation degree criteria, and the gall index was calculated. In addition, the gall index, in the case of the treated group not treating the compound (1) (untreated), was also calculated in the same manner.
Gall index=(0×a+1×b+2×c+3×d+4×e+5×f)/((a+b+c+d+e+f)×5)×100 a: number of strains that meet the gall formation degree criteria of 0, b: number of strains that meet the gall formation degree criteria of 1, c: number of strains that meet the gall formation degree criteria of 2, d: number of strains that meet the gall formation degree criteria of 3, e: number of strains that meet the gall formation degree criteria of 4, and f: number of strains that meet the gall formation degree criteria of 5. […]

The test system of data set [2] is Bursaphelenchus xylophilus. Briefly: Bursaphelenchus xylophilus control test (cotton ball test method). Further details: key: Score 1: no influence on feeding (no effect); Score 2: feeding degree of 41% or more; Score 3: feeding degree of 21 to 40%; Score 4: feeding degree of 20% or less; Score 5: no feeding (great effect). The following applies: 26° C., 5 days. As for the experimental part:
As a Bursaphelenchus xylophilus control test, the cotton ball test method was used to confirm the inhibitory effect on the proliferation of Bursaphelenchus xylophilus. […] The pressure was reduced in a desiccator for about 30 minutes, the solvent was removed by evaporation, and a test cotton ball was obtained. In addition, the gray mold as the test bacterium was cultured at 22° C. for 4 days in a Petri dish containing potato dextrose agar medium. Then, the test cotton ball was placed in the center of the Petri dish, and 1500 Bursaphelenchus xylophilus (100 μL of solution) were injected therein. This Petri dish was cultured at 26° C. for 5 days, and the feeding degree of the gray mold by Bursaphelenchus xylophilus was evaluated based on the following evaluation criteria. Further, evaluation was performed in the same manner when morantel was used instead of the compound (1) or (2).
Score 1: no influence on feeding (no effect)
Score 2: feeding degree of 41% or more
Score 3: feeding degree of 21 to 40%
Score 4: feeding degree of 20% or less
Score 5: no feeding (great effect)

The test system of the next data set is wheat. Briefly: Wheat growth effect test. The settings on record: 3 days; for Plant Height Relative to Untreated: untreated = 100; for Plant Height: root immersion. As for the experimental part: Each well of a 24-well plate was charged with 200 μL of a chemical solution prepared to have a final concentration of 10% acetone and a predetermined concentration of the compound (1), and the root of the sprouting wheat was immersed therein. Then, 3 days after the immersion, the plant height of the stems and leaves was measured to evaluate the effect of the compound (1) on the growth of wheat. In addition, the plant height of the stems and leaves was also measured for the case of sowing seeds not treated with the compound (1) (untreated). Note that Table 8 also presents the relative values of plant height (relative to untreated) when the untreated case was set to 100.

In the next data set the test system is Hymenolepis diminuta. Kind of data set: Hymenolepis diminuta control test in infected rats. The settings on record: oral 20 mg/kg, 7 days after administration. From the text:
Rats were previously infected with Hymenolepis diminuta to prepare infected rats.

The subject of data set [3] is Meloidogyne incognita. Briefly: Meloidogyne incognita control test 1 (seed dressing). The settings on record: cucumber; seed dressing 0.5 mg/seed; 21 days after inoculation. As for the experimental part: Cucumber seeds were sown one by one in a 3 cm styrene cup filled with sterilized soil, where the seeds had been subjected to dressing treatment with a dressing dust presented in Formulation Example 1 so that the amount treated of the compound (1) would be a predetermined amount. Then, 10 days after sowing, 200 counts/mL of the second stage larval solution of Meloidogyne incognita was inoculated at 1 mL for each seed. Then, 21 days after the inoculation, the degree of gall formation on the cucumber root was classified by a visual inspection based on the following 6-level gall formation degree criteria, and the gall index was calculated. In addition, the gall index was also calculated in the same manner for the case of sowing seeds treated with paraherquamide A instead of Formulation Example 1 (compound (1)) and for the case of sowing seeds treated with none of the compounds.
Gall index=(0×a+1×b+2×c+3×d+4×e+5×f)/((a+b+c+d+e+f) ×5)×100 • a: number of strains that meet the gall formation degree criteria of 0, b: number of strains that meet the gall formation degree criteria of 1, c: number of strains that meet the gall formation degree criteria of 2, d: number of strains that meet the gall formation degree criteria of 3, e: number of strains that meet the gall formation degree criteria of 4, and f: number of strains that meet the gall formation degree criteria of 5. […]

Take `C[C@H]1CC(=O)N2C[C@]34C[C@]5(CC(=O)N(C)C5=O)C(C)(C)[C@@H]3CC12C(=O)N4C` [Compound (1), 16-keto-aspergillimide]: the “corrected mortal worm rate” value in the data set on Heterodera glycines stood at 100%. For the same compound, the “Germination Rate” value in the data set on Cucumber seeds is 100%. Also, the “Germination Count” value with Cucumber seeds was determined as 5. Besides, the mortal worm rate in the data set on Ascaridia galli amounted to 0. Also, the “Gall Index” value in the data set with Meloidogyne incognita [1] amounted to 0; with Meloidogyne incognita [3], 8. The “Score (feeding degree of the gray mold)” value in data set [2] (20 μg/cotton ball, 200 ppm) is recorded as 1. In addition, the “Plant Height Relative to Untreated” value with wheat (50 ppm) worked out at 106.1; in the data set with wheat (100 ppm) it was 98.9; with wheat (200 ppm), 98.9. Besides, the results for the “Plant Height” value in the data set with wheat (50 ppm), in the data set on wheat (100 ppm) and with wheat (200 ppm) were 9.87 cm, 9.20 cm and 9.20 cm, respectively. In addition, the control effect result in the data set on Hymenolepis diminuta is “no effect”.

Take `O=S(=O)(CCC(F)=C(F)F)c1ncc(Cl)s1` [Fluensulfone, fluensulfone, reference compound]: in the data set with Cucumber seeds, the “Germination Rate” value is 0% and the “Germination Count” value was determined as 0.

As for `CN1C(=O)[C@]23C[C@@H]4C(C)(C)[C@@]5(C[C@@]41CN2CC[C@@]3(C)O)C(=O)Nc1c5ccc2c1OC=CC(C)(C)O2` [Paraherquamide A, paraherquamide A, reference compound], in the data set on Meloidogyne incognita [3], the “Gall Index” value was determined as 44.

As to `C[C@H]1CCN2C[C@@]34C[C@]5(CC(=O)N(C)C5=O)C(C)(C)[C@@H]3C[C@]12C(=O)N4C` [Compound (2), asperparaline A], in the data set on Cucumber seeds, the “Germination Rate” value turned out to be 100% and the “Germination Count” value was found to be 5. In the data set with Ascaridia galli, this compound displayed a mortal worm rate of 0. Further, in data set [2] (20 μg/cotton ball, 200 ppm), the “Score (feeding degree of the gray mold)” value was found to be 1. The control effect entry in the data set with Hymenolepis diminuta is “no effect”.

With `Cc1ccsc1/C=C/C1=NCCCN1C` [Morantel, morantel, reference compound], in data set [2] (5 μg/cotton ball, 50 ppm), the “Score (feeding degree of the gray mold)” value was 5.
